Several values for one entry are separate records, joined by “and”; a condition that tells them apart may be missing. Equal values may be shown once.
What was measured:
HT29 = assay: NCI 60 antitumor screening (single dose / five doses); type: cell-based, human; conditions: Homo sapiens; for inhibition at 10 µM: HT-29, HT29 (colon cancer), single dose 10 μM, read-out: Growth inhibition percentage (GI %)
786-0 = assay: as above; type: cell-based; conditions: Homo sapiens; for inhibition at 10 µM: 786-0, 786-0 (renal cancer), single dose 10 μM, read-out: Growth inhibition percentage (GI %)
SN 12C = assay: as above; type: cell-based; conditions: Homo sapiens, SN12C; for inhibition at 10 µM: SN 12C (renal cancer), single dose 10 μM, read-out: Growth inhibition percentage (GI %)
NCI/ADR-RES = assay: as above; type: cell-based; conditions: Homo sapiens; for inhibition at 10 µM: NCI/ADR-RES (ovarian cancer), single dose 10 μM, read-out: Growth inhibition percentage (GI %)
MDA-MB-231/ATCC = assay: as above; type: cell-based; conditions: Homo sapiens; for inhibition at 10 µM: MDA-MB-231/ATCC (breast cancer), single dose 10 μM, read-out: Growth inhibition percentage (GI %)
UACC-62 = assay: as above; type: cell-based; conditions: Homo sapiens; for inhibition at 10 µM: UACC-62 (melanoma), single dose 10 μM, read-out: Growth inhibition percentage (GI %)
HL-60(TB) = assay: as above; type: cell-based; conditions: Homo sapiens; for inhibition at 10 µM: HL-60(TB) (leukaemia), single dose 10 μM, read-out: Growth inhibition percentage (GI %)
UO-31 = assay: as above; type: cell-based; conditions: Homo sapiens; for inhibition at 10 µM: UO-31 (renal cancer), single dose 10 μM, read-out: Growth inhibition percentage (GI %)
K-562 = assay: as above; type: cell-based; conditions: Homo sapiens, K562; for inhibition at 10 µM: K-562 (leukaemia), single dose 10 μM, read-out: Growth inhibition percentage (GI %)
MALME-3M = assay: as above; type: cell-based; conditions: Homo sapiens; for inhibition at 10 µM: MALME-3M (melanoma), single dose 10 μM, read-out: Growth inhibition percentage (GI %)
HCT-116 = assay: as above; type: cell-based; conditions: Homo sapiens; for inhibition at 10 µM: HCT-116 (colon cancer), single dose 10 μM, read-out: Growth inhibition percentage (GI %)
LOX IMVI = assay: as above; type: cell-based; conditions: Homo sapiens; for inhibition at 10 µM: LOX IMVI (melanoma), single dose 10 μM, read-out: Growth inhibition percentage (GI %)
SNB-75 = assay: as above; type: cell-based; conditions: Homo sapiens; for inhibition at 10 µM: SNB-75 (CNS cancer), single dose 10 μM, read-out: Growth inhibition percentage (GI %)
TK-10 = assay: NCI 60 antitumor screening (single dose); type: cell-based; conditions: Homo sapiens; TK-10 (renal cancer), single dose 10 μM; read-out: Growth inhibition percentage (GI %)
Summary of the method: (§1)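 At one concentration (10 μM), compounds are run in triplicate on 60 human cancer lines per the NCI method. Treated-cell growth is recorded as G%. Reported inhibition equals 100 − G%.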

M14 = assay: NCI 60 antitumor screening (single dose); type: cell-based; conditions: Homo sapiens; M14 (melanoma), single dose 10 μM; read-out: Growth inhibition percentage (GI %)
Summary of the method: as §1

HS 578T = assay: NCI 60 antitumor screening (single dose); type: cell-based; conditions: Homo sapiens; HS 578T (breast cancer), single dose 10 μM; read-out: Growth inhibition percentage (GI %)
Summary of the method: as §1

HCT-15 = assay: NCI 60 antitumor screening (single dose / five doses); type: cell-based; conditions: Homo sapiens; for inhibition at 10 µM: HCT-15 (colon cancer), single dose 10 μM, read-out: Growth inhibition percentage (GI %)
[1] = system: 60 human subpanel cancer cell lines; assay: NCI 60 antitumor screening, mean over the panel (single dose); type: cell-based; conditions: mean over 60 cancer cell lines, single dose 10 μM
Summary of the method: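 Values are GI% (100 − G%) from the NCI 60-line single-dose screen, compound at 10 μM.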

RPMI-8226 = assay: NCI 60 antitumor screening (single dose / five doses); type: cell-based; conditions: Homo sapiens; for inhibition at 10 µM: RPMI-8226 (leukaemia), single dose 10 μM, read-out: Growth inhibition percentage (GI %)
UACC-257 = assay: as above; type: cell-based; conditions: Homo sapiens; for inhibition at 10 µM: UACC-257 (melanoma), single dose 10 μM, read-out: Growth inhibition percentage (GI %)
ACHN = assay: as above; type: cell-based; conditions: Homo sapiens; for inhibition at 10 µM: ACHN (renal cancer), single dose 10 μM, read-out: Growth inhibition percentage (GI %)
BT-549 = assay: as above; type: cell-based; conditions: Homo sapiens; for inhibition at 10 µM: BT-549 (breast cancer), single dose 10 μM, read-out: Growth inhibition percentage (GI %)
MOLT-4 = assay: as above; type: cell-based; conditions: Homo sapiens; for inhibition at 10 µM: MOLT-4 (leukaemia), single dose 10 μM, read-out: Growth inhibition percentage (GI %)
T-47D = assay: as above; type: cell-based; conditions: Homo sapiens, T47D; for inhibition at 10 µM: T-47D (breast cancer), single dose 10 μM, read-out: Growth inhibition percentage (GI %)
MDA-MB-435 = assay: as above; type: cell-based; conditions: Homo sapiens; for inhibition at 10 µM: MDA-MB-435 (melanoma), single dose 10 μM, read-out: Growth inhibition percentage (GI %)
CCRF-CEM = assay: as above; type: cell-based; conditions: Homo sapiens; for inhibition at 10 µM: CCRF-CEM (leukaemia), single dose 10 μM, read-out: Growth inhibition percentage (GI %)
HOP-92 = assay: as above; type: cell-based; conditions: Homo sapiens; for inhibition at 10 µM: HOP-92 (non-small cell lung cancer), single dose 10 μM, read-out: Growth inhibition percentage (GI %)
SF-539 = assay: as above; type: cell-based; conditions: Homo sapiens; for inhibition at 10 µM: SF-539 (CNS cancer), single dose 10 μM, read-out: Growth inhibition percentage (GI %)
SR = assay: as above; type: cell-based; conditions: Homo sapiens; for inhibition at 10 µM: SR (leukaemia), single dose 10 μM, read-out: Growth inhibition percentage (GI %)

SMILES: Clc1cccc(/C=N/Nc2nc(N/N=C/c3cccc(Cl)c3)nc(N3CCOCC3)n2)c1 [compound 6d, 2,4-Bis[(E)-2-[(3-chlorophenyl)methylidene]hydrazin-1-yl]-6-(morpholin-4-yl)-1,3,5-triazine]
- GI50 (HT29; HT-29, HT29, five doses (0.01–100 μM), read-out: GI50): 1.34 µM
- inhibition at 10 µM (HT29): 91.8%
- inhibition at 10 µM (786-0): 69.4%
- GI50 (786-0; 786-0, five doses (0.01–100 μM), read-out: GI50): 1.07 µM
- inhibition at 10 µM (SN 12C): 40.1%
- GI50 (SN 12C; SN 12C, five doses (0.01–100 μM), read-out: GI50): 4.99 µM
- inhibition at 10 µM (NCI/ADR-RES): 38.2%
- GI50 (NCI/ADR-RES; NCI/ADR-RES, five doses (0.01–100 μM), read-out: GI50): 4.58 µM
- GI50 (MDA-MB-231/ATCC; MDA-MB-231/ ATCC, five doses (0.01–100 μM), read-out: GI50): 9.16 µM
- inhibition at 10 µM (MDA-MB-231/ATCC): 28.7%
- inhibition at 10 µM (UACC-62): 8.33%
- GI50 (UACC-62; UACC-62, five doses (0.01–100 μM), read-out: GI50): 4.54 µM
- inhibition at 10 µM (HL-60(TB)): 110%
- GI50 (HL-60(TB); HL-60(TB), five doses (0.01–100 μM), read-out: GI50): 0.5 µM
- inhibition at 10 µM (UO-31): 73.2%
- GI50 (UO-31; UO-31, five doses (0.01–100 μM), read-out: GI50): 1.61 µM
- inhibition at 10 µM (K-562): 88.2%
- GI50 (K-562; K-562, five doses (0.01–100 μM), read-out: GI50): 0.69 µM
- inhibition at 10 µM (MALME-3M): 144%
- GI50 (MALME-3M; MALME-3M, five doses (0.01–100 μM), read-out: GI50): 2.86 µM
- inhibition at 10 µM (HCT-116): 77.2%
- GI50 (HCT-116; HCT-116, five doses (0.01–100 μM), read-out: GI50): 1.27 µM
- inhibition at 10 µM (LOX IMVI): 67.4%
- GI50 (LOX IMVI; LOX IMVI, five doses (0.01–100 μM), read-out: GI50): 2.99 µM
- inhibition at 10 µM (SNB-75): -2.64%
- GI50 (SNB-75; SNB-75, five doses (0.01–100 μM), read-out: GI50): 3.33 µM
- inhibition at 10 µM (TK-10): -0.21%
- inhibition at 10 µM (M14): 64.8%
- inhibition at 10 µM (HS 578T): 32.5%
- inhibition at 10 µM (HCT-15): 111%
- GI50 (HCT-15; HCT-15, five doses (0.01–100 μM), read-out: GI50): 0.91 µM
- Mean GI % [1]: 53.70% and 53.69%
- inhibition at 10 µM (RPMI-8226): 61.2%
- GI50 (RPMI-8226; RPMI-8226, five doses (0.01–100 μM), read-out: GI50): 1.9 µM
- inhibition at 10 µM (UACC-257): 60.9%
- GI50 (UACC-257; UACC-257, five doses (0.01–100 μM), read-out: GI50): 2.47 µM
- inhibition at 10 µM (ACHN): 74.2%
- GI50 (ACHN; ACHN, five doses (0.01–100 μM), read-out: GI50): 2.11 µM
- inhibition at 10 µM (BT-549): 7.26%
- GI50 (BT-549; BT-549, five doses (0.01–100 μM), read-out: GI50): 3.22 µM
- inhibition at 10 µM (MOLT-4): 94%
- GI50 (MOLT-4; MOLT-4, five doses (0.01–100 μM), read-out: GI50): 1.49 µM
- inhibition at 10 µM (T-47D): 31.5%
- GI50 (T-47D; T-47D, five doses (0.01–100 μM), read-out: GI50): 3.54 µM
- inhibition at 10 µM (MDA-MB-435): 50.7%
- GI50 (MDA-MB-435; MDA-MB-435, five doses (0.01–100 μM), read-out: GI50): 4.24 µM
- inhibition at 10 µM (CCRF-CEM): 75.2%
- GI50 (CCRF-CEM; CCRF-CEM, five doses (0.01–100 μM), read-out: GI50): 1.34 µM
- inhibition at 10 µM (HOP-92): 34.5%
- GI50 (HOP-92; HOP-92, five doses (0.01–100 μM), read-out: GI50): 2.17 µM
- inhibition at 10 µM (SF-539): 56.4%
- GI50 (SF-539; SF-539, five doses (0.01–100 μM), read-out: GI50): 5.39 µM
- inhibition at 10 µM (SR): 92.3%
- GI50 (SR; SR, five doses (0.01–100 μM), read-out: GI50): 0.32 µM

SMILES: Fc1cccc(/C=N/Nc2nc(N/N=C/c3cccc(F)c3)nc(N3CCOCC3)n2)c1 [compound 6e, 2,4-Bis[(E)-2-[(3-Fluorophenyl)methylidene]hydrazin-1-yl]-6-(morpholin-4-yl)-1,3,5-triazine]
- inhibition at 10 µM (HT29): 53.5%
- inhibition at 10 µM (786-0): 54%
- inhibition at 10 µM (SN 12C): 8.98%
- inhibition at 10 µM (NCI/ADR-RES): 8.29%
- inhibition at 10 µM (MDA-MB-231/ATCC): 3.49%
- inhibition at 10 µM (UACC-62): -5.24%
- inhibition at 10 µM (HL-60(TB)): 50.9%
- inhibition at 10 µM (UO-31): 30.3%
- inhibition at 10 µM (K-562): 35.3%
- inhibition at 10 µM (MALME-3M): -44%
- inhibition at 10 µM (HCT-116): 24.6%
- inhibition at 10 µM (LOX IMVI): 0.67%
- inhibition at 10 µM (SNB-75): 18.3%
- inhibition at 10 µM (TK-10): -28.1%
- inhibition at 10 µM (M14): 100%
- inhibition at 10 µM (HS 578T): -0.4%
- inhibition at 10 µM (HCT-15): 52.5%
- Mean GI % [1]: 15.60%
- inhibition at 10 µM (RPMI-8226): 33%
- inhibition at 10 µM (UACC-257): 6.59%
- inhibition at 10 µM (ACHN): 20.9%
- inhibition at 10 µM (BT-549): 11.6%
- inhibition at 10 µM (MOLT-4): 33.9%
- inhibition at 10 µM (T-47D): 10.3%
- inhibition at 10 µM (MDA-MB-435): 1.89%
- inhibition at 10 µM (CCRF-CEM): 32.8%
- inhibition at 10 µM (HOP-92): 8.68%
- inhibition at 10 µM (SF-539): 12.6%
- inhibition at 10 µM (SR): 60.2%
